The first data set concerns the target T1, human 11β-HSD1 (Homo sapiens, UniProt P28845).
T1 construct: stably transfected with a construct containing the full-length gene coding for the human 11β-HSD1 enzyme; expressed in transfected cells; host or cells: HEK293 (stably transfected, HEK293/11β-HSD1)
In words: Cellular in vitro 11β-HSD1 enzyme inhibition assay (SPA, HEK293/11β-HSD1 cells). In kind it is cell-based. The conditions noted are these: HEK293; potency groups, μM; read-out: IC50 for 11β-HSD1 (HEK293). The protocol:
Compounds were assessed by a Scintillation Proximity Assay (SPA) performed according to the following protocol:
HEK293 cells were stably transfected with a construct containing the full-length gene coding for the human 11β-HSD1 enzyme to create HEK293/11β-HSD1 cells. Cells were routinely cultured in DMEM containing 10% calf foetal serum, 1% glutamine, and 1% penicillin and streptomycin. Prior to assay, cells were plated at 2×10^4 cells/well in 96-well poly-D-Lys coated flat-bottomed microplates and incubated in 5% CO2, 95% O2 at 37° C. for 24 hours. The media in each well was removed immediately before assay.
Compounds to be tested were dissolved in DMSO at 10 mM and serially diluted into water containing 10% DMSO. Diluted compounds at a volume of 10 μL were added to wells of a 96-well V-bottomed microplate. A solution of DMEM, 1% glutamine, 1% penicillin and streptomycin, and 22 nM tritiated cortisone was prepared and 90 μL added to each well of the assay plate. This solution (100 μL/well) was transferred to the plate containing the cells. The plate was then incubated in 5% CO2, 95% O2 at 37° C. for 2 hours.
Following this incubation, 50 μL of the assay solution was transferred to each well of a 96-well scintillation microplate. A mixture consisting of anti-mouse YSi SPA beads, pre-mixed with anti-cortisol antibody in assay buffer (50 mM Tris.HCl, pH 7.0; 300 mM NaCl; 1 mM EDTA, 5% glycerol) was prepared and 50 μL added to each well of the scintillation microplate. An adhesive strip was applied to the microplate and the plate gently shaken for at least 2 hours at room temperature, and then spun briefly on a low speed centrifuge. The plate was read on a scintillation counter suitable for 96-well microplates. For the calculation of percentage inhibition, a series of wells were added to the plate that represented the assay maximum and the assay minimum: one set that contained substrate without cells (minimum) and another set that contained substrate and cells without any compound (maximum).
The calculation of median inhibitory concentration (IC50) values for the compounds was performed using GraphPad Prism® software. Dose-response curves for each compound were plotted as fractional inhibition and data fitted to the four parameter logistic equation.
T1 sequence (P28845 whole entry): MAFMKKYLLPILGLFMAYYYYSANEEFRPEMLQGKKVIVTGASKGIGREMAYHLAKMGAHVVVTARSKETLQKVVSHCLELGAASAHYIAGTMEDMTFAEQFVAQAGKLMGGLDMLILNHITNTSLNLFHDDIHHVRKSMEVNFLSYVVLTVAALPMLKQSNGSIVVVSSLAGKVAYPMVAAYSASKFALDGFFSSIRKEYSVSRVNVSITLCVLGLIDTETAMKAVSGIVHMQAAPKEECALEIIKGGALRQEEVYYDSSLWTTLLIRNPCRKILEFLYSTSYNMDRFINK
For the compound `O=C(c1csc(-c2cn[nH]c2)c1)N1CCC(F)(c2ncccn2)CC1` [YY-11], the IC50 is 0.5 to 10 µM.
On the same count and under the same terms, to `O=C(c1csc(-c2cn[nH]c2)c1)N1C2CCC1CC(O)(c1cncnc1)C2` (centres unmarked) [XX-22] belongs 0.5 to 10 µM; to `O=C(c1csc(-c2cn[nH]c2)c1)N1CCC(O)(c2ncccn2)CC1` [YY-10], 0.5 to 10 µM; to `O=C(c1csc(-c2cn[nH]c2)c1)N1C2CCC1CC(O)(c1cccnn1)C2` (centres unmarked) [XX-28], 0.5 to 10 µM.
`O=C(c1csc(-c2cn[nH]c2)c1)N1CCC(O)(c2ncccc2F)CC1` [YY-08]: the IC50 was 0.5 to 10 µM.
On the same count and under the same terms, the figure for `O=C(c1csc(-c2cn[nH]c2)c1)N1C2CCC1CC(O)(c1ccncn1)C2` (centres unmarked) [XX-21] is 0.5 to 10 µM; for `O=C(c1csc(-c2cn[nH]c2)c1)N1C2CCC1CC(O)(c1ncccc1F)C2` (centres unmarked) [XX-02] it is 0.5 to 10 µM.
Still for that read-out and setting: the figure for `Cn1ccnc1C1(O)CC2CCC(C1)N2C(=O)c1csc(-c2cn[nH]c2)c1` (centres unmarked) [XX-38] is 0.5 to 10 µM; for `O=C(c1csc(-c2cn[nH]c2)c1)N1CCC(O)(c2ccccn2)CC1` [YY-01] it is 0.5 to 10 µM.

The data set is the same for the next values; noted with them: HEK293; potency groups; read-out: IC50 for 11β-HSD1 (HEK293).
With `Cn1nccc1C1(O)CC2CCC(C1)N2C(=O)c1csc(-c2cn[nH]c2)c1` (centres unmarked) [XX-39], the IC50 is 0.1 to 0.5 µM.
`N#CC1(c2ncccn2)CC2CCC(C1)N2C(=O)c1csc(-c2cn[nH]c2)c1` (centres unmarked) [XX-26]: the IC50 was ≤ 0.1 µM.
`CN(C)c1cccc(C2(O)CC3CCC(C2)N3C(=O)c2csc(-c3cn[nH]c3)c2)n1` (centres unmarked) [XX-08]: the IC50 was ≤ 0.1 µM.
`O=C(c1csc(-c2cn[nH]c2)c1)N1C2CCC1CC(F)(c1nccs1)C2` (single isomer, unassigned) [XX-34, (3-Fluoro-3-thiazol-2-yl-8-aza-bicyclo[3.2.1]oct-8-yl)-[5-(1H-pyrazol-4-yl)-thiophen-3-yl]-methanone]: the IC50 lay within 0.1 to 0.5 µM.
As to `O=C(c1csc(-c2cn[nH]c2)c1)N1C2CCC1CC(O)(c1ccncc1Cl)C2` (centres unmarked) [XX-04], the IC50 was ≤ 0.1 µM.
For `O=C(c1csc(-c2cn[nH]c2)c1)N1C2CCC1CC(O)(c1ncccc1C(F)(F)F)C2` (centres unmarked) [XX-09], the IC50 is ≤ 0.1 µM.
The same measure, in the same setting: to `O=C(c1csc(-c2cn[nH]c2)c1)N1CCC(O)(c2ccncc2F)CC1` [YY-07] belongs 0.1 to 0.5 µM; to `O=C(c1csc(-c2cn[nH]c2)c1)N1C2CCC1CC(F)(c1ccccn1)C2` (centres unmarked) [XX-14], ≤ 0.1 µM.
The same measure, in the same setting: the figure for `COC1(c2ncccc2C)CC2CCC(C1)N2C(=O)c1csc(-c2cn[nH]c2)c1` (centres unmarked) [XX-11] is ≤ 0.1 µM; for `O=C(c1csc(-c2cn[nH]c2)c1)N1C2CCC1CC(O)(c1ncncc1Cl)C2` (centres unmarked) [XX-23] it is ≤ 0.1 µM; for `Cc1cccnc1C1(C#N)CC2CCC(C1)N2C(=O)c1csc(-c2cn[nH]c2)c1` (centres unmarked) [XX-19] it is ≤ 0.1 µM.
As to `O=C(c1csc(-c2cn[nH]c2)c1)N1C2CCC1CC(O)(c1ncco1)C2` (centres unmarked) [XX-37], the IC50 is ≤ 0.1 µM.
For `COc1cccc(C2(O)CC3CCC(C2)N3C(=O)c2csc(-c3cn[nH]c3)c2)n1` (centres unmarked) [XX-05], the IC50 was ≤ 0.1 µM.
As for `COc1cccnc1C1(O)CC2CCC(C1)N2C(=O)c1csc(-c2cn[nH]c2)c1` (centres unmarked) [XX-06], the IC50 is ≤ 0.1 µM.
`O=C(c1csc(-c2cn[nH]c2)c1)N1C2CCC1CC(O)(c1cccnn1)C2` (centres unmarked) [XX-27]: the IC50 was ≤ 0.1 µM.
The same measure, in the same setting: to `O=C(c1csc(-c2cn[nH]c2)c1)N1C2CCC1CC(O)(c1nc3ccccc3s1)C2` (centres unmarked) [XX-40] belongs 0.1 to 0.5 µM; to `O=C(c1csc(-c2cn[nH]c2)c1)N1CCC(F)(c2ncccc2Cl)CC1` [YY-09], 0.1 to 0.5 µM; to `O=C(c1csc(-c2cn[nH]c2)c1)N1C2CCC1CC(F)(c1ncccc1F)C2` (centres unmarked) [XX-41], ≤ 0.1 µM.
Same read-out and setting: the figure for `COC1(c2ccccn2)CC2CCC(C1)N2C(=O)c1csc(-c2cn[nH]c2)c1` (centres unmarked) [XX-10] is ≤ 0.1 µM; for `O=C(c1csc(-c2cn[nH]c2)c1)N1CCC(O)(c2ncc(Cl)cc2Cl)CC1` [YY-03] it is 0.1 to 0.5 µM; for `CCOC1(c2ccccn2)CC2CCC(C1)N2C(=O)c1csc(-c2cn[nH]c2)c1` (centres unmarked) [XX-12] it is ≤ 0.1 µM.
As to `O=C(c1csc(-c2cn[nH]c2)c1)N1CCC(O)(c2ncccc2C(F)(F)F)CC1` [YY-04], the IC50 was in the range of 0.1 to 0.5 µM.
Still for that read-out and setting: to `Cc1nccnc1C1(O)CC2CCC(C1)N2C(=O)c1csc(-c2cn[nH]c2)c1` (centres unmarked) [XX-25] belongs 0.1 to 0.5 µM; to `N#CC1(c2nccs2)CC2CCC(C1)N2C(=O)c1csc(-c2cn[nH]c2)c1` (centres unmarked) [XX-35], ≤ 0.1 µM.
Same read-out and setting: the figure for `CCc1ccc(Cl)c(C2(O)CCN(C(=O)c3csc(-c4cn[nH]c4)c3)CC2)n1` [YY-05] is 0.1 to 0.5 µM.
On the same count and under the same terms, the figure for `Cc1cnc(C2(O)CC3CCC(C2)N3C(=O)c2csc(-c3cn[nH]c3)c2)s1` (centres unmarked) [XX-32] is ≤ 0.1 µM; for `Cc1csc(C2(O)CC3CCC(C2)N3C(=O)c2csc(-c3cn[nH]c3)c2)n1` (centres unmarked) [XX-30] it is 0.1 to 0.5 µM.

Tested on in another data set: not listed separately
As to the kind of experiment: In vitro human liver microsomal stability assay. In kind it is in vitro ADME. The conditions noted are these: human liver microsomes. As to the method:
To predict in vivo metabolism of compounds, the stability of compounds incubated with human liver microsomes in vitro was determined. Human liver microsome preparations were stored at −80° C. and thawed on ice prior to use. The thawed microsomes were diluted to a concentration of 2 mg/mL in 50 mM sodium phosphate, pH 7.4. Reference and test compounds were prepared as 10 mM stocks in 100% DMSO and diluted to 1 mM in acetonitrile before use. Each compound was tested in triplicate as follows:
4 μL of test or reference compound was added to a well of a 24-well microplate and 0.5 mL of 4 mM NADPH added. The plate was then transferred to a shaker for 10 minutes at room temperature. 30 μL of the compound/NADPH solution was transferred to the well of a 96-well microplate and incubated at 37° C. for 5 minutes. 30 μL of human liver microsomes (pre-incubated at 37° C. for 5 minutes) was added to the well containing the compound/NADPH solution and the plate incubated for the selected period of time (typically 0 or 30 minutes). The reaction was stopped by adding 60 μL of ice cold […] trichloroacetic acid. The plate was centrifuged at 1000 rpm for 5 minutes at room temperature and the supernatant transferred to the well of a new 96-well V-bottomed microplate for mass spectrometric analysis.
Samples were analyzed by TSQ Quantum Discovery Tandem Mass Spectrometer and Surveyor Liquid Chromatogram (Thermo, Hemel-Hempstead, UK). 10 μL of each sample was injected in a mobile phase consisting of 60%:40% methanol:5 mM ammonium acetate at a flow rate of 0.5 mL/minute. The column used was a BDS hypersil, C18, 50×2.1 mm with a 5 μm particle size.
Each compound was tuned with a spray voltage of 3000 V and a capillary temperature of 300° C. and values for tube lens, CID and product ions were determined.
The peak area for each compound was measured in triplicate for the 0 and 30 minute samples and the average of each was reported. The percentage remaining after 30 minutes was calculated as the average peak area of the sample after 30 minutes divided by the average peak area at 0 minutes. The RSD was 10% or lower for each compound.
For the compound `O=C(c1csc(-c2cn[nH]c2)c1)N1CCC(O)(c2ccncc2F)CC1` [YY-07], the “% Parent Remaining at 30 min” value is “+++ (61-100% +++)”.
For the compound `O=C(c1csc(-c2cn[nH]c2)c1)N1C2CCC1CC(O)(c1ncco1)C2` (centres unmarked) [XX-37], the “% Parent Remaining at 30 min” value is given as “+++ (61-100% +++)”.
On the same count and under the same terms, to `O=C(c1csc(-c2cn[nH]c2)c1)N1C2CCC1CC(O)(c1cccnn1)C2` (centres unmarked) [XX-27] belongs “+++ (61-100% +++)”; to `O=C(c1csc(-c2cn[nH]c2)c1)N1CCC(F)(c2ncccc2Cl)CC1` [YY-09], “+++ (61-100% +++)”; to `N#CC1(c2nccs2)CC2CCC(C1)N2C(=O)c1csc(-c2cn[nH]c2)c1` (centres unmarked) [XX-35], “++ (31-60% ++)”.

For the origin of these results see patent US9834549B2, “3,3-disubstituted-(8-aza-bicyclo[3.2.1]OCT-8-yl)-[5-(1H-pyrazol-4-yl)-thiophen-3-yl]-methanones as inhibitors of 11 (β)-HSD1” (The University Of Edinburgh, priority 2010, dated 2017).
